Several values for one entry are separate records, joined by “and”; a condition that tells them apart may be missing. Equal values may be shown once. Read-outs that look alike come from different tables or passages of the source.
Key:
[1] = target: T1, arylhydrocarbon receptor (AhR) (Homo sapiens, UniProt P35869); design: HepG2 cells stably transfected with an AhR-responsive luciferase reporter gene plasmid; host or cells: HepG2-AhR-Luc (HepG2 stably transfected with an AhR-responsive luciferase reporter plasmid); conditions: cited from earlier work
T1 sequence (P35869 11-848): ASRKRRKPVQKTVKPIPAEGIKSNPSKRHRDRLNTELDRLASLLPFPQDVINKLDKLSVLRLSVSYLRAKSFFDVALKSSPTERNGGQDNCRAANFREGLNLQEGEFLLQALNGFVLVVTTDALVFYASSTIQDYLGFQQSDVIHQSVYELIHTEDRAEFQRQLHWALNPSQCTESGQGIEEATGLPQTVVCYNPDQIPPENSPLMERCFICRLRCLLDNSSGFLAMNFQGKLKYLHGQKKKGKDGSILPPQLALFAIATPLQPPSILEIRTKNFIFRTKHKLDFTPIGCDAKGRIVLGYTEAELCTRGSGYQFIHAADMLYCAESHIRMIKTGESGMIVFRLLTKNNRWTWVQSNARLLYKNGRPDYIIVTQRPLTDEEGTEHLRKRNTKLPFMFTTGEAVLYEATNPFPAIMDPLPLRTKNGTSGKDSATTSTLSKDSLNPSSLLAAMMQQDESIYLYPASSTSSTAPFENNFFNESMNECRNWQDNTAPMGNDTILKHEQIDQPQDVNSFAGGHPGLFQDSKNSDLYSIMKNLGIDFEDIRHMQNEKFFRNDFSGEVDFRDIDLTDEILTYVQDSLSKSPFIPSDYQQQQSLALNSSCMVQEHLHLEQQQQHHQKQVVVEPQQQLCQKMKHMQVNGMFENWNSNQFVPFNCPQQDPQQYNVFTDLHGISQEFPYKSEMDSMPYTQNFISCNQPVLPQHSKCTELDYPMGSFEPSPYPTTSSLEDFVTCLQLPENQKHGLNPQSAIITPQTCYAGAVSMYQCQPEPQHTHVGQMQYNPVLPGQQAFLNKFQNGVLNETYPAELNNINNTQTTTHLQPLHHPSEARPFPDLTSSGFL

[2] = target: T1, arylhydrocarbon receptor (AhR); assay: HepG2-AhR-Luciferase assay
Experimental: HepG2-AhR-Luc cells were purchased from Pharmaron, One-Glo Luciferase assay system was purchased from Promega. DMEM was purchased from Hyclone, and penicillin/streptomycin was purchased from Solabio.
Culture media for stably transfected HepG2 cells was prepared by supplementing DMEM with high glucose and L-glutamine, as well as 10% FBS.
HepG2-AhR-Luc cells were cultured in T-75 flasks at 37° C., 5% CO2, and 95% relative humidity. Cells were allowed to reach 80-90% confluence before detachment and splitting.
Cultivated cells were rinsed with 5 mL PBS. PBS was aspirated away, 1.5 mL trypsin was added to the flask, and cells were incubated at 37° C. for approximately 5 minutes or until the cells detached and floated. Trypsin was inactivated by adding excess serum-containing media.
The cell suspension was transferred to a conical tube and centrifuged at 120 g for 10 minutes to pellet the cells. Cells were resuspended in seeding media at a proper density. 40 μL of cells were transferred to a 384-well culture plate (5×10^3 cells/well). Plates were placed in the incubator at 37° C. for 24 hours.
Afterward, stock solutions of test compounds and omeprazole positive control were prepared. Compound solutions were transferred into the assay plate using Echo550. The plate was then placed back into the incubator for compound treatment.
Later, after 24 hours of treatment, the plate was removed from the incubator and allowed to cool at ambient temperature. 30 μL One-Glo reagent equal to that of the culture medium was added in each well. Cells were allowed to lyse for at least 3 minutes, and then measured in a luminometer.
Dose responses were graphed using the non-linear regression analysis in XLfit and EC50 values were also calculated.

[3] = tested on: MeWo cells; assay: CellTiter-Glo cell viability assay (Example 9); assay type: cell-based; conditions: 100, 10, 1 μM; 6, 24, 48, 72 hours
Experimental: (§1) CellTiter-Glo® 2.0 assay was purchased from Promega. Cell seeding, preparation of the compound source plate, and exposure of cells to test compounds were performed as described in Example 8.
(§2) CellTiter-Glo® reagents were thawed and equilibrated to room temperature before the experiment. 40 μL of CellTiter-Glo® reagent was then added to each well for detection (at 1:1 ratio to culture medium). The plates were then incubated at room temperature for 30 minutes and read using EnSpire (PerkinElmer) plate reader. The remaining activity was calculated according to the following formula: Remaining Activity (%)=100%×(Lumsample−Lumbkg)/(Lumvehicle−Lumbkg).

[4] = tested on: WM115 cells; assay: CellTiter-Glo cell viability assay (Example 9); assay type: cell-based; conditions: 100, 10, 1 μM; 6, 24, 48, 72 hours
Experimental: as §1, §2

[5] = tested on: MeWo cells; assay: Cell morphology after treatment (Example 6); assay type: cell-based; conditions: 100 μM, 6 hours
[6] = tested on: WM115 cells; assay: Cell morphology after treatment (Example 6); assay type: cell-based; conditions: 100 μM, 6 hours
[7] = tested on: WM115 cells; assay: Annexin V assay, additional evaluation (Example 8); assay type: cell-based; conditions: 100, 10, 1 μM; 6, 24, 48, 72 hours
Experimental: (§3) To further investigate the impact of test compounds on apoptosis, multiple readouts, covering different stages of apoptosis, were carried out on both MeWo and WM115 cells. Both cell types were treated with test compounds at 3 doses (100 μM, 10 μM, and 1 μM). Staurosporine was used as a positive control. […] The test compounds evaluated were CV-8684. CV-8685, and CV-8688.
(§4) Cell seeding was performed as discussed above with the following exceptions: the final cell density was 4,000 cells/well for 6-hour and 24-hour detections, whereas 2,000 cells/well were used for 48-hour and 72-hour detections. For each time point. 384-well clear bottom plates (Corning 3712) and solid white bottom plates (Corning 3570) were prepared. The plates were incubated as discussed above.
(§5) For preparation of the compound source plate, each test compound was dissolved in DMSO to 10 mM stock. Two additional concentrations were generations by 10-fold dilution to 1 mM and 0.1 mM. Staurosporine was used as positive control and 1% DMSO was employed as vehicle (negative) control. The compound source plate was spun at room temperature at 1,000 RPM for 1 minute and agitated using a plate shaker for 2 minutes.
(§6) 400 nL of test compound was transferred from the compound source plate to 384-well culture plates using Echo550 liquid handler. After 6, 24, 48, and 72 hours, the plates were removed from the incubator for detections.
(§7) Culture media was removed and cells were washed twice with PBS. 20 μL of pre-mixed annexin V-FITC working solution was added to each well. The cells were incubated at room temperature for 20 minutes. Plates were read using Acumen eX3 to count the number of FITC-positive cells. The relative activity was calculated according to the following formula: Relative Activity (%)=100%×(Countsample/Countvehicle).

[8] = tested on: MeWo cells; assay: Annexin V assay, additional evaluation (Example 8); assay type: cell-based; conditions: 100, 10, 1 μM; 6, 24, 48, 72 hours
Experimental: as §3, §4, §5, §6, §7

[9] = tested on: WM115 cells; assay: Lactate dehydrogenase (LDH) release assay (Example 10); assay type: cell-based; conditions: 100, 10, 1 μM; 6, 24, 48, 72 hours
Experimental: (§8) The LDH assay quantitatively measures lactate dehydrogenase (“LDH”) released into the media from damaged cells as a biomarker for cytotoxicity and cytolysis.
(§9) CytoTox-ONE™ Homogenous Membrane Integrity Assay was purchased from Promega. Cell seeding, preparation of the compound source plate, and exposure of cells to test compounds were performed as described in Example 8.
(§10) Plates were then centrifuged at 1,000 RPM for 1 minute. 20 μL of cell culture medium was transferred into a new 384-well black solid plate. Then, 20 μL of CytoTOX-ONE™ was added into each well and incubated at room temperature for 10 minutes. Afterward, 10 μL of stop solution were added to each well, and the plates were agitated at 500 rpm for 1 minute. Plates were read using an excitation wavelength of 560 nm and an emission wavelength of 590 nm on EnSpire. The relative activity was calculated according to the following formula: Relative Activity (%)=100%×(Lumsample−Lumbkg)/(Lumvehicle−Lumbkg).

[10] = tested on: MeWo cells; assay: as above; assay type: cell-based; conditions: 100, 10, 1 μM; 6, 24, 48, 72 hours
Experimental: as §8, §9, §10

[11] = cited from earlier work
[12] = tested on: staphylococci; conditions: cited from earlier work
[13] = tested on: Candida albicans; conditions: cited from earlier work
[14] = EC50 (uM), Table 2, 24 hours of treatment
[15] = EC50 (uM), Table 1, 24 hours of treatment

O=Cc1c2[nH]c3ccccc3c2cc2[nH]c3ccccc3c12 [6-formylindolo[3,2-b] carbazole (FICZ), 6-formylindolo[3,2-b] carbazole]
AhR agonism [1]: Agonists

O=C(Cc1c[nH]c2ccccc12)Cc1c[nH]c2ccccc12 [AB12976]
EC50 [2, 14]: 16.5 µM

O=C[C@@H]1Cc2c([nH]c3ccccc23)[C@@H](c2c[nH]c3ccccc23)CN1 [AB17011, Malassezia Indole A]
EC50 [2, 14]: 35.8 µM

O=C(c1c[nH]c2ccccc12)c1nccc2c1[nH]c1ccccc12 [AB17014, Pityriacitrin]
EC50 [2, 14]: 3.46 µM

COC(=O)c1c(C(c2c[nH]c3ccccc23)C2CC2)[nH]c2ccccc12 (stereo not drawn) [AB17151]
EC50 [2, 14]: 13.7 µM

Cc1ccc2c(c1)[nH]c1c(C)c3c(cc12)[nH]c1ccccc13 [AB17225]
EC50 [2, 14]: 3.93 µM

O=Cc1c(Cc2c[nH]c3ccccc23)[nH]c2ccccc12 [CV-8684, Malassezin]
inhibition of cell viability [3]: dose-dependent inhibition of cell viability | inhibition of cell viability [4]: dose-dependent inhibition of cell viability | cell morphology [5]: significantly affected | cell morphology [6]: significantly affected | apoptosis induction (annexin V binding) [7]: induced apoptosis at the highest concentration tested after 6 hours of treatment | apoptosis induction (annexin V binding) [8]: induced apoptosis at the highest concentration tested after 6 hours of treatment | LDH release [9]: did not induce significant release | LDH release [10]: did not induce significant release | EC50 [2, 15]: 4.19 µM

c1ccc2c(c1)[nH]c1cc3c(cc12)[nH]c1ccccc13 [CV-8685, indolo[3,2-b] carbazole]
inhibition of cell viability [4]: inhibitory effect on WM115 cell viability in a dose-dependent manner only after 24-hour treatment | cell morphology [6]: only affect WM115 | apoptosis induction (annexin V binding) [7]: showed the induction effect with 24 hours of treatment | apoptosis induction (annexin V binding) [8]: 48 hours of treatment appeared to elicit apoptosis | LDH release [9]: dose-dependent induction effect on LDH release | EC50 [2, 15]: 6.6 µM | EC50 [2, 14]: 15.2 µM

OCc1c(Cc2c[nH]c3ccccc23)[nH]c2ccccc12 [CV-8803]
EC50 [2, 15]: 13.9 µM

CC(c1[nH]c2ccccc2c1CO)c1c[nH]c2ccccc12 (stereo not drawn) [CV-8804]
EC50 [2, 15]: 15.7 µM

Cc1ccc2cc3c(ccc4ccccc43)c3c2c1CC3 [Compound 3-MC, 3-methylcholanthrene, reference compound]
EC50 [2]: 4.34 µM

O=Cc1c(C(=O)c2c[nH]c3ccccc23)[nH]c2ccccc12 [Compound A5 (CV-8819)]
EC50 [2, 14]: 4.11 µM

CC(c1[nH]c2ccccc2c1C(=O)O)c1c[nH]c2ccccc12 (stereo not drawn) [Compound B10]
EC50 [2, 14]: 4.29 µM

COC(c1[nH]c2ccccc2c1C=O)c1c[nH]c2ccccc12 (stereo not drawn) [Compound H (AB12509)]
EC50 [2, 14]: 11.6 µM

Cc1ccc2c(Cc3[nH]c4ccccc4c3C=O)c[nH]c2c1 [Compound I (CV-8686)]
EC50 [2, 14]: 5.45 µM

CC(c1[nH]c2ccccc2c1C=O)c1c[nH]c2ccccc12 (stereo not drawn) [Compound II (CV-8688]
EC50 [2, 14]: 13.4 µM

Cc1ccc2c(c1)[nH]c1cc3c(cc12)[nH]c1ccccc13 [Compound IV (CV-8687)]
EC50 [2, 14]: 33.6 µM

O=C1Nc2ccccc2/C1=C1/Nc2ccccc2C1=O [Indirubin]
AhR agonism [1]: known agonist

c1ccc2[nH]c(Cc3c[nH]c4ccccc34)cc2c1 [Malassezin Precursor]
EC50 [2, 14]: 37.3 µM

COc1ccc2[nH]c([S+]([O-])Cc3ncc(C)c(OC)c3C)nc2c1 (stereo not drawn) [Omeprazole, omeprazole, reference compound]
EC50 [2, 15]: 21.4 µM | EC50 [2, 14]: 42.3 µM and 39.8 µM

Clc1cc2c(cc1Cl)Oc1cc(Cl)c(Cl)cc1O2 [TCDD, 2,3,7,8-tetrachlorodibenzodioxin, reference compound]
EC50 [2, 14]: 0.0018 µM and 0.0031 µM

Nc1c(C(=O)O)c2nc3c(C(=O)O)cccc3oc-2cc1=O [cinnabarinic acid]
AhR agonism [1]: Agonists

Nc1ccccc1C(=O)CC(N)C(=O)O (stereo not drawn) [kynurenine]
AhR agonism [1]: Agonists

Pityriacitrin
SPF ([11]; 1.25% cream): 1.4 | SPF ([11]; 2.5% cream): 1.5 | SPF ([11]; 5% cream): 1.7 | UV-protective effect [12]: UV-protective effect | toxicity [12]: no toxicity | UV-protective effect [13]: UV-protective effect | toxicity [13]: no toxicity

Reference: patent publication US11220491B2, “Photoprotective compositions containing Malassezia-derived compounds and/or chemical analogs thereof” (Versicolor Technologies, LLC, priority 2018, dated 2022)
